Tests used:
[1] = Displacement of [3H]nisoxetine from rat brain NAT; type: tissue-based
[2] = molecular target: Sodium-dependent dopamine transporter (Rattus norvegicus, UniProt P23977); assay: Displacement of [3H]WIN-35428 from rat brain DAT; type: tissue-based
Rattus norvegicus [3] = organism: Rattus norvegicus; assay: Selectivity for rat NAT over rat DAT
Rattus norvegicus [4] = organism: Rattus norvegicus; assay: Selectivity for rat NAT over rat SERT
[5] = molecular target: Sodium-dependent serotonin transporter (Rattus norvegicus, UniProt P31652); assay: Displacement of [3H]citalopram from rat brain SERT
Sequence of Sodium-dependent serotonin transporter (P31652 whole entry): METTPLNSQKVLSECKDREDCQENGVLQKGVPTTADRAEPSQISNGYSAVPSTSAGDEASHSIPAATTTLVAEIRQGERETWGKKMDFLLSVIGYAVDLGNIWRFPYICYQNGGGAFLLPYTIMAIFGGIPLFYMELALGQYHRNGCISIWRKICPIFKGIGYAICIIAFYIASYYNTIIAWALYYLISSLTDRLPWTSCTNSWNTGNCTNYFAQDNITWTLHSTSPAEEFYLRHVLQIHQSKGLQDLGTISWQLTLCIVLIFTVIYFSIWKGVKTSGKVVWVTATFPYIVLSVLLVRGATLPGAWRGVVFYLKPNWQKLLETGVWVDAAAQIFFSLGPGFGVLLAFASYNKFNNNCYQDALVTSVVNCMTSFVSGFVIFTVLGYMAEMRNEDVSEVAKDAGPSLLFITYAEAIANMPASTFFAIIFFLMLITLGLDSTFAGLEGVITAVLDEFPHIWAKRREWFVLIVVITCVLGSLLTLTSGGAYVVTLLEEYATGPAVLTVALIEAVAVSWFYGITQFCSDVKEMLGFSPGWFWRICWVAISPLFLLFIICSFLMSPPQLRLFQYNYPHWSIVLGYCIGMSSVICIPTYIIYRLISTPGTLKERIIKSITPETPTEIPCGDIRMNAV

Sequence of Sodium-dependent dopamine transporter (P23977 whole entry): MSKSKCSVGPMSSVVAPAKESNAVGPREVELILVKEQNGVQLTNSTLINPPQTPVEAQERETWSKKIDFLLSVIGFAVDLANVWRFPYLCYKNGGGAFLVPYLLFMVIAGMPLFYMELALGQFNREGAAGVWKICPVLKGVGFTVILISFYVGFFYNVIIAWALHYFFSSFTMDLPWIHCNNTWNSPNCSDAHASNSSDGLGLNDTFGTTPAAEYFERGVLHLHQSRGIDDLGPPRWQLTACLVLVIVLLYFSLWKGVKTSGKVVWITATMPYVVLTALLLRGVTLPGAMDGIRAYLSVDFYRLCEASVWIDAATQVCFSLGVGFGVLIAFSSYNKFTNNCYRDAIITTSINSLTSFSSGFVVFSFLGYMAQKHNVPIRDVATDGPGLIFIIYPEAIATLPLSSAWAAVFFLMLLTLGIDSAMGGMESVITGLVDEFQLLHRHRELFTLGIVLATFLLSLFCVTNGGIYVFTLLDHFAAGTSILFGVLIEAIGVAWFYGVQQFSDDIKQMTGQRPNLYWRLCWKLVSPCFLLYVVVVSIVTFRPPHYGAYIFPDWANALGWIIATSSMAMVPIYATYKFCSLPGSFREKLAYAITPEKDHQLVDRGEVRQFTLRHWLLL

Ki [1] [nM] | Ki [2] [nM] | Ratio Ki (Rattus norvegicus [3]) | Ratio Ki (Rattus norvegicus [4]) | Ki [5] [nM] | SMILES
58.2 | – | – | – | – | CCOc1ccccc1O[C@@H](c1ccc(I)cc1)[C@H]1CNCCO1
53.8 | 1460 | 25 | 50 | 2790 | CCOc1ccccc1O[C@@H](c1ccc(I)cc1)[C@@H]1CNCCO1
321 | – | – | – | – | CCOc1ccccc1O[C@H](c1ccc(I)cc1)[C@@H]1CNCCO1
64 | 716 | – | – | 646 | CCOc1ccccc1O[C@H](c1ccc(I)cc1)[C@H]1CNCCO1

Source: ChEMBL document CHEMBL1144186, “New iodoreboxetine analogues for SPECT imaging of the noradrenaline transporter” (Bioorg Med Chem Lett, 2008)
